Series [1] is described as follows: TBARS assay of OH. In kind it is biochemical. The conditions noted are these: scavenger 5 mM; Fe^3+ or Cu^2+. The procedure:
All data points are means ±SD, n=3.
The Thiobarbituric Acid-Reactive Substance (TBARS) assay for incubation mixtures with Fe^3+ or Cu^2+ was performed in a 96-well microtiter format modified from established protocols (Gutteridge et al. Biochim. Biophys. Acta 759: 38-41 (1983)). Aβ peptide species (10 μM) or Vitamin C (100 μM), were incubated with Fe^3+ or Cu^2+ (1 μM) and deoxyribose (7.5 mM, Sigma) in PBS, pH 7.4. Following incubation (37° C., 1 hour), glacial (17 M) acetic acid and 2-thiobarburic acid (1%, w/v in 0.05 M NaOH, Sigma) were added and heated (100° C., 10 min). The final mixtures were placed on ice for 1-3 minutes before absorbances at 532 nm were measured. The net absorbance change for each sample were obtained by deducting the absorbance from a control sample consisting of identical chemical components except for the Vitamin C or Aβ peptides.

The test system of series [2] is Aβ. Nature of the series: Effect of agents on Cu^2+-induced SDS-resistant Aβ polymerization. In kind it is biochemical, human. The procedure: Cu^2+-induced SDS-resistant oligomerization of Aβ: Aβ (2.5 μM), 150 mM NaCl, 20 mM hepes (pH 6.6, 7.4, 9) with or without ZnCl2 or CuCl2. Following incubation (37° C.), aliquots of each reaction (2 ng peptide) were collected at 0 d, 1 d, 3 d and 5 d and western blotted using anti-Aβ monoclonal antibody 8E10 (FIG. 9). Migration of the molecular size markers are indicated (kDa). […] Cu^2+ (2-30 μM) induced SDS-resistant polymerization of peptide. […] It should be noted that other means of visualizing and/or determining the presence or absence of polymerization other than western blot analysis may be used. Such other means include but are not limited to density sedimentation by centrifugation of the samples.
It is possible that the decreased polymerization may be due to chelation of Cu^2+ by BC, however given the low binding affinity of BC for Cu^2+ compared with Aβ, it seems likely that the chelation of Cu^+ by BC prevents it from inducing SDS-resistant Ad polymerization. Therefore, Aβ may undergo a hydroxyl radical modification that promotes its assembly into SDS-resistant polymers.

The subject of series [3] is Aβ deposits of AD-affected brain. As to the kind of experiment: Extraction (solubilization) of Aβ from post-mortem AD brain tissue homogenates, western blot densitometry. In kind it is biochemical, human. The procedure:
Identical regions of frontal cortex (0.5 g) from post-mortem brains of individuals with AD, as well as non-AD conditions, were homogenized in TBS, […] ±metal chelators.
0.5 g of prefrontal cortex was dissected and homogenized in PBS ±chelator as indicated. The homogenate was then centrifuged (100,000 g) and the supernatant removed, and a sample taken for western blot assay using anti-Aβ specific antibodies after Tricine PAGE. Densitometry was performed against synthetic peptide standards.
Densitometry of Aβ western blots (FIGS. 19A-19C) was performed for a series of 6 AD brain samples homogenized in the presence of chelators as indicated.
Next the ability of clioquinol to extract Aβ deposits from human brain was examined. […] Fragments of prefrontal cortex from individual post-mortem samples with the histopathological diagnosis of AD were homogenized in PBS, pH 7.4, and then pelleted after centrifugation. The pellets were then washed with agitation twice for 30 minutes, 4° C., with PBS or PBS containing clioquinol (100% =0.8 μM clioquinol). The suspension was then pelleted (10,000 g for 30 minutes) and the supernatant removed (S1) for western blot analysis using Aβ-specific antibodies (illustrated). The pellet was treated a second time in this experiment with agitation and centrifugation, and the second supernatant (S2) analysed.
Soluble Aβ (ng/g tissue) was determined as described. Total Aβ was determined following formic acid extraction of otherwise untreated tissue.
(§1) Suitable quantities of gray matter from each subject were minced to serve as pools of homogenous tissue. […] To obtain the soluble fraction, the homogenates were centrifuged at 100,000× g for 30 min (Beckman J180, Beckman instruments, Fullerton, California) and the supernatant collected in 1 ml aliquots and stored on ice or immediately frozen at −70° C. In each experiment, all protein was precipitated from 1 ml of supernatant from each treatment group using 1:5 ice cold 10% trichloracetic acid and pelleted in a bench top microfuge (Heraeus, Osteroder, Germany) at 10,000× g. The remaining pellet was frozen at −70° C.
Precipitated protein was subjected to SDS polyacrylamide gel electrophoresis (SDS-PAGE) on Novex pre-cast 10-20% Tris-Tricine gels followed by Western transfer onto 0.2 μm nitrocellulose membrane (Biorad, Hercules, Calif.). […] Each gel included two or more lanes containing known quantities of synthetic Aβ which served as internal reference standards. Blot images were captured by a Relisys scanner with transparency adapter (Teco Information Systems, Taiwan, ROC) and densitometry conducted using the NIH Image 1.6 program (National Institutes for Health, USA. Modified for PC by Scion Corporation, Frederick, Md.), calibrated using a step diffusion chart. For quantitation of Aβ in brain extracts, the internal reference standards of synthetic Aβ were utilized to produce standard curves from which values were interpolated.

For series [4], the system named is Aβ deposits of age-matched control brain. Nature of the series: Extraction of Aβ from age-matched non-AD control brain tissue. It counts as biochemical, human. The procedure: as §1
Precipitated protein was subjected to SDS polyacrylamide gel electrophoresis (SDS-PAGE) on Novex pre-cast 10-20% Tris-Tricine gels followed by Western transfer onto 0.2 μm nitrocellulose membrane (Biorad, Hercules, Calif.). Aβ was detected using the WO2, G210 or G211 monoclonal antibodies (Ida, N., et al., J. Biol. Chem., 271:22908 (1996)) in combination with HRP-conjugated rabbit anti-mouse IgG (Dako, Denmark), and visualized using chemiluminescence (ECL, Amersham Life Science, Little Chalfont, Buckinghamshire, UK). Each gel included two or more lanes containing known quantities of synthetic Aβ which served as internal reference standards. Blot images were captured by a Relisys scanner with transparency adapter (Teco Information Systems, Taiwan, ROC) and densitometry conducted using the NIH Image 1.6 program (National Institutes for Health, USA. Modified for PC by Scion Corporation, Frederick, Md.), calibrated using a step diffusion chart. For quantitation of Aβ in brain extracts, the internal reference standards of synthetic Aβ were utilized to produce standard curves from which values were interpolated.

Series [5] can be described thus: Residual metals in post-centrifugation pellets of brain homogenates (ICP-AES). It counts as biochemical, human. The following applies: Table 6.
Series [6] addresses Aβ1-42 (Homo sapiens, UniProt P05067). As to the kind of experiment: Effect of metal chelators on H2O2 production from Aβ1-42. It counts as biochemical.
For series [7] the following is noted: Table 5, NIST database, cited from earlier work.
For series [8] the following is noted: Table 5; NIST database; cited from earlier work.
The conditions of series [9]: Table 5; NIST database; cited from earlier work. The source holds these as a separate data set.

Where “and” joins values, the source holds several entries; their conditions need not be identical. Identical values can stand only once. Entries after “also recorded” stand apart in the source; their conditions may differ.

The values below come from patent publication US20020082273A1, “Agents for use in the treatment of alzheimer's disease” (priority 1998, published 2002).

Aβ1-42, sequence (P05067 672-713 limits assumed): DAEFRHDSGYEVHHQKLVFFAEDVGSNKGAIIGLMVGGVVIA

On to `C[S+](C)[O-]` [DMSO, dimethyl sulfoxide], for which the “effect of OH. scavengers on OH. generation by Aβ1-42” value in [1] is listed as “neither were able to quench”.

On to `OC[C@@H](O)[C@@H](O)[C@H](O)[C@H](O)CO` [mannitol], for which, in series [1], the “effect of OH. scavengers on OH. generation by Aβ1-42” value is “neither were able to quench”. In addition, in [2], the “effect on Cu^2+-induced SDS-resistant Aβ polymerization” value was “abolishes the polymerization”.

Regarding bathocuproinedisulfonic acid [BC], in series [3], the “% of total Aβ extracted” value is 3.1% and 7.2% and 6%; the “% of total Aβ extracted, + PBS” value was 2.36% and 5.4% and 3.7%; the “Extractable Aβ (% of total), X (mean)” value is on record as “(5.4) %”; the “Extractable Aβ, X (mean)” value turned out to be 4.10 µg/g. In series [3], the “X C/PBS (mean chelator / PBS)” value came out at 3.90, the “concentration response of Aβ solubilization” value is given as “typical concentration-dependent response with no decline in effectiveness” and the “mean increase of Aβ solubilization over PBS alone” value is “around 4 fold”. Besides, in [4] (AC subject 1, chelator 2 mM), the “Extractable Aβ” value came to 0.03 µg/g and the “Extractable Aβ (% of total)” value is listed as “(5) %”. Moreover, in series [4] (AC subject 2, chelator 2 mM), the “Extractable Aβ” value stood at 0.24 µg/g and the “Extractable Aβ (% of total)” value is on record as “(5.7) %”. In series [4] (AC subject 3, chelator 2 mM), the “Extractable Aβ” value stood at 0.29 µg/g and the “Extractable Aβ (% of total)” value was “(11.0) %”. Also, in series [4] (AC subject 4, chelator 2 mM), the “Extractable Aβ” value was found to be 0.08 µg/g and the “Extractable Aβ (% of total)” value is recorded as “(2.6) %”. Also, in series [4] (AC subject 5, chelator 2 mM), the “Extractable Aβ” value is 0.98 µg/g and the “Extractable Aβ (% of total)” value is “(27.2) %”. In [4] (AC subjects 1-5, chelator 2 mM), the “Extractable Aβ (% of total), X (mean)” value was “(10.3) %” and the “Extractable Aβ, X (mean)” value came to 0.32 µg/g. Besides, the “X C/PBS (mean chelator / PBS)” value in series [4] (age-matched control tissue, chelator 2 mM) worked out at 1.28. The “effect on Aβ solubilization compared with AD tissue” value in series [4] (non-demented, aged-matched controls) was “much reduced”. In series [5] (chelator 0.001 mM), the “Residual Al in extracted pellet” value amounted to 88 mg/kg, the “Residual Ca in extracted pellet” value is 1306 mg/kg, the “Residual Cu in extracted pellet” value is given as 13 mg/kg and the “Residual Fe in extracted pellet” value is recorded as 275 mg/kg. In [5] (chelator 0.001 mM), the “Residual Mg in extracted pellet” value came out at 225 mg/kg and the “Residual Zn in extracted pellet” value amounted to 47 mg/kg. For the same compound, in series [5] (chelator 0.004 mM), the “Residual Al in extracted pellet” value stood at 33 mg/kg, the “Residual Ca in extracted pellet” value came out at 489 mg/kg, the “Residual Cu in extracted pellet” value is 12 mg/kg and the “Residual Fe in extracted pellet” value turned out to be 231 mg/kg. In addition, in [5] (chelator 0.004 mM), the “Residual Mg in extracted pellet” value is 234 mg/kg and the “Residual Zn in extracted pellet” value was found to be 47 mg/kg. In series [5] (chelator 0.01 mM), the “Residual Al in extracted pellet” value is listed as 73 mg/kg, the “Residual Ca in extracted pellet” value is 762 mg/kg, the “Residual Cu in extracted pellet” value was 13 mg/kg and the “Residual Fe in extracted pellet” value is listed as 256 mg/kg. Also, in series [5] (chelator 0.01 mM), the “Residual Mg in extracted pellet” value came out at 223 mg/kg and the “Residual Zn in extracted pellet” value was 49 mg/kg. In series [5] (chelator 0.04 mM), the “Residual Al in extracted pellet” value was determined as 38 mg/kg, the “Residual Ca in extracted pellet” value is on record as 753 mg/kg, the “Residual Cu in extracted pellet” value stood at 15 mg/kg and the “Residual Fe in extracted pellet” value turned out to be 248 mg/kg. In addition, in series [5] (chelator 0.04 mM), the “Residual Mg in extracted pellet” value worked out at 226 mg/kg and the “Residual Zn in extracted pellet” value turned out to be 56 mg/kg. Besides, in [5] (chelator 2.0 mM), the “Residual Al in extracted pellet” value is reported as 42 mg/kg, the “Residual Ca in extracted pellet” value was determined as 1602 mg/kg, the “Residual Cu in extracted pellet” value was found to be 14 mg/kg and the “Residual Fe in extracted pellet” value was 271 mg/kg. Moreover, in series [5] (chelator 2.0 mM), the “Residual Mg in extracted pellet” value amounted to 254 mg/kg and the “Residual Zn in extracted pellet” value was 49 mg/kg. Moreover, in series [5] (chelator 5.0 mM), the “Residual Al in extracted pellet” value is reported as 38 mg/kg, the “Residual Ca in extracted pellet” value is listed as 912 mg/kg, the “Residual Cu in extracted pellet” value is on record as 15 mg/kg and the “Residual Fe in extracted pellet” value was 249 mg/kg. Moreover, in [5] (chelator 5.0 mM), the “Residual Mg in extracted pellet” value amounted to 238 mg/kg and the “Residual Zn in extracted pellet” value was determined as 53 mg/kg. Moreover, in series [6], the “effect on H2O2 formation by Aβ1-42” value was “substantially inhibited; also recorded: inhibited H2O2 formation”. Also, the “effect on Cu^2+-induced SDS-resistant Aβ polymerization” value in series [2] is given as “marked decrease in polymerization”. For the same compound, in [7] (Cu^2+), the “Stability constant logK10, Cu^2+” value is 6.1. The “Stability constant logK10, Cu^+” value in series [7] (Cu^+) is 19.1. Also, the “Stability constant logK10, Zn” value in series [8] is on record as 4.1. In addition, the “Stability constant logK10, Co” value in [9] is listed as 4.2.
